Test results published in patent US20040259819A1, “Novel heterocyclic fluoroglycoside derivatives, medicaments containing these compounds, and the use thereof” (Aventis Pharma Deutschland GmbH, priority 2002, published 2004).

Molecular target: T1, SGLT (Oryctolagus cuniculus, UniProt P11170)
T1 construct: To prepare brush border membranes from rabbit small intestine, rabbits were sacrificed; from tissue; host or cells: rabbit small intestine mucosa, brush border membrane vesicles (Mg2+ precipitation)
T1 sequence (P11170 1-662): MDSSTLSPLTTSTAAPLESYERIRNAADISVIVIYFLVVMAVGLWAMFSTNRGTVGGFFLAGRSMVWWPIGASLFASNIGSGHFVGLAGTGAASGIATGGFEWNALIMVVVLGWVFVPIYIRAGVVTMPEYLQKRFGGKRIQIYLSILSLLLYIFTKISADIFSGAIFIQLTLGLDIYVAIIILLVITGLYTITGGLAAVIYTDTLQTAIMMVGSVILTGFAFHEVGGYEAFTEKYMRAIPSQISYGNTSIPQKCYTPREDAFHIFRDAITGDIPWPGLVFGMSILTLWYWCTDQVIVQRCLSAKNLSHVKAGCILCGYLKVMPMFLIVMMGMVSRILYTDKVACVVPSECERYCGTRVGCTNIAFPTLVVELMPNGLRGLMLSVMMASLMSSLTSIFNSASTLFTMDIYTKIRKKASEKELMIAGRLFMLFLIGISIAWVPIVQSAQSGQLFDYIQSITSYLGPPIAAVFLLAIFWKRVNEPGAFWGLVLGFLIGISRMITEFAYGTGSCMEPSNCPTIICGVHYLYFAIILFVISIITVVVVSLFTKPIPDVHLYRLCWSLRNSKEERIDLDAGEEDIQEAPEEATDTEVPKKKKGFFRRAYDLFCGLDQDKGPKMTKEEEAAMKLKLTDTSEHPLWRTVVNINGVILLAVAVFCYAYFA
Assay: Glucose uptake transport assay on rabbit small intestine brush border membrane vesicles
Format: biochemical
Conditions: uptake of 10 μM [14C]D glucose into rabbit small intestine brush border membrane vesicles, 15 seconds, 30° C., membrane filtration method
Procedure: Preparation of brush border membrane vesicles from the small intestine of rabbits, rats and pigs
Preparation of brush border membrane vesicles from the intestinal cells of the small intestine was carried out by the so-called Mg^2+ precipitation method. The mucosa of the small intestine was scraped off and suspended in 60 ml of ice-cold Tris/HCl buffer (pH 7.1)/300 mM mannitol, 5 mM EGTA. Dilution to 300 ml with ice-cold distilled water was followed by homogenization with an Ultraturrax (18 shaft, IKA Werk Staufen, FRG) at 75% of the max. power for 2×1 minute, while cooling in ice. After addition of 3 ml of 1M MgCl2 solution (final concentration 10 mM), the mixture is left to stand at 0° C. for exactly 15 minutes. Addition of Mg^2+ causes the cell membranes to aggregate and precipitate with the exception of the brush border membranes. After centrifugation at 3 000×g (5 000 rpm, SS-34 rotor) for 15 minutes, the precipitate is discarded and the supernatant, which contains the brush border membranes, is centrifuged at 26 700×g (15 000 rpm, SS-34 rotor) for 30 minutes. The supernatant is discarded, and the precipitate is rehomogenized in 60 ml of 12 mM Tris/HCl buffer (pH 7.1)/60 mM mannitol, 5 mM EGTA using a Potter Elvejhem homogenizer (Braun, Melsungen, 900 rpm, 10 strokes). Addition of 0.1 ml of 1M MgCl2 solution and incubation at 0° C. for 15 minutes is followed by centrifugation again at 3 000×g for 15 minutes. The supernatant is then centrifuged again at 46 000×g (20 000 rpm, SS-34 rotor) for 30 minutes. The precipitate is taken up in 30 ml of 20 mM Tris/Hepes buffer (pH 7.4)/280 mM mannitol and homogeneously resuspended by 20 strokes in a Potter Elvejhem homogenizer at 1 000 rpm. After centrifugation at 48 000×g (20 000 rpm, SS-34 rotor) for 30 minutes, the precipitate was taken up in 0.5 to 2 ml of Tris/Hepes buffer (pH 7.4)/280 mM mannitol (final concentration 20 mg/ml) and resuspended using a tuberculin syringe with a 27 gauge needle. […]
The uptake of [^14C]-labeled glucose into brush border membrane vesicles was measured by the membrane filtration method. […]

IC50 [nM]	SMILES
4000	COc1ccc(Cc2sccc2OC2OC(CO)C(F)C(O)C2O)cc1 (single isomer, unassigned) [Example 1]
400	COc1ccc(Cc2sc3ccccc3c2OC2OC(CO)C(F)C(O)C2O)cc1 (stereo not drawn) [Example 2]
300	COc1ccc(Cc2sccc2OC2OC(CO)C(F)C(O)C2O)cc1 (single isomer, unassigned) [Example 3]
